Tests used:
[1] = target: T1, PDE5A1 (Homo sapiens, UniProt O76074); assay: Inhibition of PDE5A1 activity, modified SPA (scintillation proximity assay) with recombinant enzyme; type: biochemical; conditions: for IC50: recombinant PDE5A1, 0.5 μM cGMP substrate, read-out: Inhibition of the PDE5 activity (IC50)
T1 construct: made in house; host or cells: SF21 insect cells (baculovirus; virus made in SF9)
Text: The PDE5A1 (GB no. AF043731) was cloned via PCR from Kidney cDNA. A 5′ fragment was amplified with OZ489 (5′-[…] -3′) and OZ 493 (5′-[…]-3′), a 3′ fragment was amplified with OZ 492 (5′-[…]-3′) and OZ 490 (5′-[…]-3′). Both fragments were cloned into pCR2.1-Topo. Primers OZ 493 and OZ 492 have a nucleotide substitution that doesn't affect the translated sequence, but introduces an EcoRI cutting site. The 2 fragments were cut out of the cloning vector with EcoRI and subcloned together in a single ligation reaction into pBP9, resulting in the construct PZ 287. […] For correct expression it was subcloned with Xmal/Sacl into pBacPak8.
The recombinant baculovirus was prepared by means of homologous recombination in SF9 insect cells. The expression plasmid was cotransfected with Bac-N-Blue (Invitrogen, Groningen, NL) or Baculo-Gold DNA (Pharmingen, Hamburg) using a standard protocol (Pharmingen, Hamburg). Wt virus-free recombinant virus supernatant was selected using plaque assay methods. After that, high-titre virus supernatant was prepared by amplifying 3 times. PDE was expressed in SF21 cells by infecting 2×10^6 cells/ml with an MOI (multiplicity of infection) between 1 and 10 in serum-free SF900 medium (Life Technologies, Paisley, UK). The cells were cultured at 28° C. for 48-72 hours, after which they were pelleted for 5-10 min at 1000 g and 4° C.
The SF21 insect cells were resuspended, at a concentration of approx. 10^7 cells/ml, in ice-cold (4° C.) homogenization buffer (20 mM Tris, pH 8.2, containing the following additions: 140 mM NaCl, 3.8 mM KCl, 1 mM EGTA, 1 mM MgCl2, 10 mM β-mercaptoethanol, 2 mM benzamidine, 0.4 mM Pefablock, 10 μM leupeptin, 10 μM pepstatin A, 5 μM trypsin inhibitor) and disrupted by ultrasonication. The homogenate was then centrifuged for 10 min at 1000× g and the supernatant was stored at −80° C. until subsequent use (see below). The protein content was determined by the Bradford method (BioRad, Munich) using BSA as the standard.
The test volume is 100 μl and contains 20 mM Tris buffer (pH 7.4), 0.1 mg of BSA (bovine serum albumin)/ml, 5 mM Mg^2+, 0.5 μM cGMP (including about 50,000 cpm of [3H]cGMP as a tracer), 1 μl of the respective substance dilution in DMSO and sufficient recombinant PDE (1000× g supernatant, see above) to ensure that 10-20% of the cGMP is converted under the said experimental conditions. […] After a preincubation of 5 min at 37° C., the reaction is started by adding the substrate (cGMP) and the assay is incubated for a further 15 min; after that, it is stopped by adding SPA beads (50 μl). In accordance with the manufacturer's instructions, the SPA beads had previously been resuspended in water, but were then diluted 1:3 (v/v) in water; the diluted solution also contains 3 mM IBMX to ensure a complete PDE activity stop. After the beads have been sedimented (>30 min), the MTP's are analyzed in commercially available luminescence detection devices. The corresponding IC50 values of the compounds for the inhibition of PDE activity are determined from the concentration-effect curves by means of non-linear regression.

[2] = test system: isolated guinea pig Langendorff hearts; assay: Perfused guinea-pig Langendorff heart (bolus injection into the perfusion flow)
Text: (Modification: Bolus Injection into the Perfusion Flow)
Guinea-pigs (male, Dunkin Hartley, 400-500 g; Charles River, Sulzfeld, Germany) kept in Macrolon® cages (type IV) with free access to food (maintenance diet no. 3418, Provimi-Kliba, CH-4303 Kaiseraugst) and tap water, were killed by cervical dislocation and the thoracic cavity was opened. The heart was rapidly excised and perfused with Krebs-Henseleit solution at a constant pressure of 80 cm H2O ([…]) via retrograde cannulation of the aorta in a Langendorff apparatus. The Krebs-Henseleit solution was composed as follows (mM: NaCl 118, KCl 4.7, CaCl2 1.9, MgSO4 1.2, KH2PO4 1.2, NaHCO3 25.0, and glucose 5.0, at 37° C., gassed with 95% O2/5% CO2, v/v). Through an incision in the left atrium, a water-filled balloon catheter connected to a Statham P 23 Db pressure transducer was introduced into the left ventricle and preloaded to a pressure of […], mimicking the diastolic pressure.
Precoronary perfusate flow (CF, at an initial average passive flow of 11-13 ml/min) was measured using an electromagnetic flow meter. The change in left ventricular isovolumetric pressure amplitude (LVP) calculated by subtracting the diastolic from the systolic pressure, the rate of maximal left ventricular pressure rise (dP/dtmax), and the rate of the spontaneously beating heart (HR) were continuously recorded and monitored by a data acquisition system (Notocord, hem version 3.3; F-78290 Croissy).
Following at least 1 h of perfusion and stabilization of all cardiac parameters, the test drug is injected as 100 μl bolus within 2 s directly into the perfusion tube connected to the aortic inflow and increased threefold after the previous dose has produced its coronary dilatory response and the perfusion flow has returned to pre-drug values again. Thee drug-induced change in cardiac parameters is expressed as percentage of the initial pre-drug values.

Structure (SMILES)	PDE5 inhibition in vitro (result in words) [1]	IC50 [1] [µM]	coronary heart flow [2]	heart rate [2]	left ventricular pressure [2]
CS(=O)(=O)Nc1cc2c(cc1Sc1ccc(F)cc1F)C(=O)CC2 [L-745337]	possess PDE5 activity in the μM range				
O=C(O)Cc1ccccc1Nc1c(Cl)cccc1Cl [Diclofenac]	show no effects	> 100	substantially lack the ability to increase coronary heart flow		
CC(=O)Oc1ccccc1C(=O)O [Aspirin, acetylsalicylic acid]	show no effects	> 100			
Cc1ccc(-c2ncc(Cl)cc2-c2ccc(S(C)(=O)=O)cc2)cn1 [Etorecoxib]	show no effects	> 100	substantially lack the ability to increase coronary heart flow		
CS(=O)(=O)Nc1ccc([N+](=O)[O-])cc1Oc1ccccc1 [nimesulide]	possess PDE5 activity in the μM range				
Cc1ccc(Nc2c(F)cccc2Cl)c(CC(=O)O)c1 [Lumiracoxib]	show no effects	> 100	substantially lack the ability to increase coronary heart flow		
Cc1ccc(-c2cc(C(F)(F)F)nn2-c2ccc(S(N)(=O)=O)cc2)cc1 [Celecoxib]				no effect	no effect
CS(=O)(=O)c1ccc(C2=C(c3ccccc3)C(=O)OC2)cc1 [Rofecoxib]	show no effects	> 100	substantially lack the ability to increase coronary heart flow		
Cc1onc(-c2ccccc2)c1-c1ccc(S(N)(=O)=O)cc1 [Valdecoxib]	show no effects	> 100	substantially lack the ability to increase coronary heart flow		
CCC(=O)NS(=O)(=O)c1ccc(-c2c(-c3ccccc3)noc2C)cc1 [Parecoxib]	show no effects	> 100	substantially lack the ability to increase coronary heart flow		
CS(=O)(=O)Nc1cc2c(cc1Oc1ccc(F)cc1F)C(=O)CC2 [flosulide]	possess PDE5 activity in the μM range				

Source: US20080171746A1, “Method for Preventing Cardiovascular Diseases” (priority 2005, published 2008)
